Source: patent US20130171278A1 (priority 2010, published 2013)

How the values were obtained:
scopolamine-treated rat = experiment: 8-arm radial maze acquisition test in scopolamine-treated animals; format: in vivo
Procedure: (§1) Ethology test such as passive avoidance test and radial maze test were performed for Artemisia apiaceae. In the case of passive avoidance test, the control group, the scopolamine-treated group (3 mg/kg, i.p.), the tacrine-treated group after scopolamine treatment (10 mg/kg p.o.) and the Artemisia apiaceae extract-treated group were shocked. After 24 hrs, entering time to dark chamber (step-through latency, STL) was measured. […] Furthermore, in order to verify enhancement in more specific learning ability, acquisition test in which an error frequency is measured was performed using 8-arm radial maze.

[1] = tested on: scopolamine-induced memory deficit rat model; experiment: Passive avoidance test in scopolamine-induced memory deficit model; format: in vivo; settings: 24 hrs after shock
Procedure: as §1

SMILES | error frequency compared with the scopolamine-treated group (scopolamine-treated rat) | error frequency (scopolamine-treated rat; normal group 1.6, negative control group 3.25) | entering time into the dark chamber (step-through latency, STL) ([1]; tacrine 10 mg/kg p.o. after scopolamine treatment) | entering time into the dark chamber (step-through latency, STL) ([1]; scopolamine 3 mg/kg i.p., compared with the control group)
Nc1c2c(nc3ccccc13)CCCC2 [tacrine] | significantly decreased error frequency | 1.75 | significantly increased entering time into the dark chamber | 
CN1[C@@H]2C[C@@H](OC(=O)[C@H](CO)c3ccccc3)C[C@H]1[C@@H]1O[C@@H]12 [scopolamine] |  |  |  | significantly decreased entering time into the dark chamber
